Reference: ChEMBL document CHEMBL4627375, “Monovalent protein-degraders - Insights and future perspectives” (Bioorg Med Chem Lett, 2020)

Assays:
[1] = molecular target: Protein phosphatase 1 regulatory subunit 15A (Homo sapiens, UniProt O75807); experiment: Inhibition of amino-terminal MBP-tagged/carboxy-terminal His6-tagged human PPP1R15A (325 to 626 residues)
[2] = molecular target: T1, Protein phosphatase 1 regulatory subunit 15B (Homo sapiens, UniProt Q5SWA1); experiment: Inhibition of amino-terminal MBP-tagged/carboxy-terminal His6-tagged human PPP1R15B (325 to 626 residues)
T1 sequence (Q5SWA1 whole entry): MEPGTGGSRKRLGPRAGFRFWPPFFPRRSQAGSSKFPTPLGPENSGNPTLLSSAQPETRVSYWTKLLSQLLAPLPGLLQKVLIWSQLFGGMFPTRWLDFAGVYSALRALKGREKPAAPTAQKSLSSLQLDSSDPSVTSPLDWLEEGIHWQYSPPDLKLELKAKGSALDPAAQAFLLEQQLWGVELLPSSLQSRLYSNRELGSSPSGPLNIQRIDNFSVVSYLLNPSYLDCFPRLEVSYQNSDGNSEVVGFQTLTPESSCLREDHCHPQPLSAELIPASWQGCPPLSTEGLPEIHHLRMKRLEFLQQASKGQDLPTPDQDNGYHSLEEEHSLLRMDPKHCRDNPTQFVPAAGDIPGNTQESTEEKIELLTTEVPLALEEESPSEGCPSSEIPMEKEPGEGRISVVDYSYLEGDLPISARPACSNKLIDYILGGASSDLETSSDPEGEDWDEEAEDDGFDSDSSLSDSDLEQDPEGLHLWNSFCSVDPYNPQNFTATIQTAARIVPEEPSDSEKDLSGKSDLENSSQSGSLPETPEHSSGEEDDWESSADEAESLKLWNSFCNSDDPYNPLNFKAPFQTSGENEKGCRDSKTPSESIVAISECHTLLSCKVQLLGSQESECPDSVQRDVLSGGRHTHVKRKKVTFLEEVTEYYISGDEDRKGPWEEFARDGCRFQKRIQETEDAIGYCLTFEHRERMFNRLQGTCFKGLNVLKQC

[3] = molecular target: Maternal embryonic leucine zipper kinase (Homo sapiens, UniProt Q14680); experiment: Inhibition of MELK (unknown origin)
[4] = molecular target: T2, Protein deacetylase HDAC6 (Homo sapiens, UniProt Q9UBN7); experiment: Inhibition of HDAC6 (unknown origin)
T2 sequence (Q9UBN7 whole entry): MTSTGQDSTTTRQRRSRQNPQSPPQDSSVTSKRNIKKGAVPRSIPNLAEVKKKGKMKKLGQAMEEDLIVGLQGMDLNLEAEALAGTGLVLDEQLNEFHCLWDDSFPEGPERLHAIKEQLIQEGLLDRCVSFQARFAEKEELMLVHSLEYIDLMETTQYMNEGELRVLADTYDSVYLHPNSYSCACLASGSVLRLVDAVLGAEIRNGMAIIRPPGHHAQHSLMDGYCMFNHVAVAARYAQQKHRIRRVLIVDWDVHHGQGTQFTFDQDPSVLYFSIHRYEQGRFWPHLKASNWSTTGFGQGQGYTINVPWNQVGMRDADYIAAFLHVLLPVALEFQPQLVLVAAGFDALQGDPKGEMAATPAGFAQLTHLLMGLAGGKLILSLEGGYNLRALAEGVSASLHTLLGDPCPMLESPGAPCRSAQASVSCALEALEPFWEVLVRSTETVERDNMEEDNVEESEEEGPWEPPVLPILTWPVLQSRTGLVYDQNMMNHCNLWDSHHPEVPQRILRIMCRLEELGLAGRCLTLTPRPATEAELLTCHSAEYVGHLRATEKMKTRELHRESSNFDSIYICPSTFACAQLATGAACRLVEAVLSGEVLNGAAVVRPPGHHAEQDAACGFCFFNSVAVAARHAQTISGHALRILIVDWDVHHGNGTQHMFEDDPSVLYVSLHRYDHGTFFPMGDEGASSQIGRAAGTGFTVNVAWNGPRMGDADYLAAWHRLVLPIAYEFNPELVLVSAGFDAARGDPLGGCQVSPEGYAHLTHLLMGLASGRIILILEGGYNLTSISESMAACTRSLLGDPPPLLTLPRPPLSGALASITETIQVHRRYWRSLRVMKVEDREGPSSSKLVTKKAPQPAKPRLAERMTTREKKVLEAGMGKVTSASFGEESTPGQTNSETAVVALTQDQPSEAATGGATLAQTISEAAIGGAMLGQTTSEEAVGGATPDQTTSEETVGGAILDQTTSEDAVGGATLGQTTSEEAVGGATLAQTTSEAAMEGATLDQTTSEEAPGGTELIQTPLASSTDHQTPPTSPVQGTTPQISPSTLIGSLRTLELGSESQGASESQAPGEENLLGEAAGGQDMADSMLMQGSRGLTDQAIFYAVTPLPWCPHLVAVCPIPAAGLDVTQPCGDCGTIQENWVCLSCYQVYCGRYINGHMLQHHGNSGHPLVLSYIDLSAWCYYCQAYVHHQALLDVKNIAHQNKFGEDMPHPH

Homo sapiens = species: Homo sapiens; experiment: Selectivity ratio, ratio of IC50 for HDAC6 (unknown origin) to Class 1 HDAC (unknown origin)

Maternal embryonic leucine zipper kinase, sequence (Q14680 whole entry): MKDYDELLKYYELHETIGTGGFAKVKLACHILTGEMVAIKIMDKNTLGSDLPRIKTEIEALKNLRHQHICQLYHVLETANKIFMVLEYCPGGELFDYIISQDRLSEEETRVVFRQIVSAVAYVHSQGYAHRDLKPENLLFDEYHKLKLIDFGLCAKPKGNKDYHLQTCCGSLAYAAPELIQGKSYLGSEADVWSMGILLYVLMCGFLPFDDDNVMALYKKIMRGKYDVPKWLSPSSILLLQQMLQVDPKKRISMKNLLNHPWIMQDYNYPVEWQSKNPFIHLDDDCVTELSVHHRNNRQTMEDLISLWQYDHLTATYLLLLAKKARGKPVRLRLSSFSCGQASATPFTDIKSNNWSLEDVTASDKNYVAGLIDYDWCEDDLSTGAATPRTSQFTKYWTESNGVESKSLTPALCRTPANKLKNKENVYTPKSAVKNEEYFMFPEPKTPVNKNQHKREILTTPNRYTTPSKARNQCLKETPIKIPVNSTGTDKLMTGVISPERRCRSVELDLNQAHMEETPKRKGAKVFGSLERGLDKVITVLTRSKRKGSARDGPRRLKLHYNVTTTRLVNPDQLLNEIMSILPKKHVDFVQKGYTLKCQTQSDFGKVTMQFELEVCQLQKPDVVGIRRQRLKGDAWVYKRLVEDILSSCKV
Protein phosphatase 1 regulatory subunit 15A, sequence (O75807 whole entry, the tested form may be a part): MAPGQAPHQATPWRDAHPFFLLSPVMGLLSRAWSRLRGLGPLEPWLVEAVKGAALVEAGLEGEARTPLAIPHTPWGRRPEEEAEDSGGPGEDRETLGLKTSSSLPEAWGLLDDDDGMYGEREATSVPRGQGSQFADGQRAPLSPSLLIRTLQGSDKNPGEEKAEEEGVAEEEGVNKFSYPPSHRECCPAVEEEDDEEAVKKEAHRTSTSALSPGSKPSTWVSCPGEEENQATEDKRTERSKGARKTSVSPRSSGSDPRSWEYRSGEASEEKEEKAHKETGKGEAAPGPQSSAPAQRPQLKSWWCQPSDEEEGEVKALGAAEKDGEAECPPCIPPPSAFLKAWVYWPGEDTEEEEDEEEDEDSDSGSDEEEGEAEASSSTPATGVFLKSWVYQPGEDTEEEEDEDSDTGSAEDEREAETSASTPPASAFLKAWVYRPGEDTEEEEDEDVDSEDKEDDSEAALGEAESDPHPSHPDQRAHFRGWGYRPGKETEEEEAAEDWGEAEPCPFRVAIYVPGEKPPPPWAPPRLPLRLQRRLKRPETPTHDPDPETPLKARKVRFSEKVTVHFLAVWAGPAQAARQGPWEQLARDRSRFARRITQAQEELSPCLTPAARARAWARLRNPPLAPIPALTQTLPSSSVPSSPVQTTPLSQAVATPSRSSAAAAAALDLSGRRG

Structure (SMILES): N=C(N)N/N=C/c1cccc(Cl)c1Cl
- IC50 [1]: 977 nM
- IC50 [2]: 33 nM
- IC50 [3]: 200 to 500 nM

Structure (SMILES): O=C(NO)c1ccc(Cn2c(=O)n(CCc3ccccc3)c(=O)c3ccccc32)cc1
- IC50 [4]: 4.7 nM
- Ratio IC50 (Homo sapiens): 200
- IC50 [3]: 200 to 500 nM

Structure (SMILES): COc1ccc(/C=C2\SC(=S)NC2=O)cc1C#C[Si](C)(C)C
- IC50 [3]: 200 to 500 nM

Structure (SMILES): CNC(=O)COc1cc2cc(Nc3nc(N4C[C@H](C)C[C@H](C)C4)ncc3Cl)ccc2n(C)c1=O
- IC50 [3]: 200 to 500 nM
